Results from ChEMBL document CHEMBL1157106, “cis-Clerodane-type furanoditerpenoids from Tinospora crispa” (J Nat Prod, 2010).

Experiments:
NIH3T3 = test: Cytotoxicity against mouse 3T3 cells after 72 hrs by MTT assay; format: cell-based; settings: NIH3T3, 72 h
PC-3 = test: cells; settings: Homo sapiens, PC-3, 72 h
Description: Cytotoxicity against human PC3 cells after 72 hrs by MTT assay

| IC50 (PC-3) | SMILES | IC50 (NIH3T3) |
| --- | --- | --- |
| > 10 µM | C[C@@]12C[C@@H](c3ccoc3)OC(=O)[C@@H]1C[C@@H]1OC(=O)[C@@]3(O)[C@@H](O[C@@H]4O[C@H](CO)[C@@H](O)[C@H](O)[C@H]4O)CC[C@@H]2[C@@]13C [BORAPETOSIDE A] | > 10 µM |
| > 10 µM | COC(=O)C1=C[C@H](O)C[C@H]2[C@]3(C)C[C@@H](c4ccoc4)OC(=O)[C@H]3C[C@H](O[C@@H]3O[C@H](CO)[C@@H](O)[C@H](O)[C@H]3O)[C@@]12C [BORAPETOSIDE B] | > 10 µM |
| > 10 µM | COC(=O)C1=CCC[C@H]2[C@]3(C)C[C@@H](c4ccoc4)OC(=O)[C@@H]3C[C@@H](O[C@@H]3O[C@H](CO)[C@@H](O)[C@H](O)[C@H]3O)[C@@]12C [BORAPETOSIDE C] | > 10 µM |
| > 10 µM | COC(=O)C1=CCC[C@H]2[C@](C)(C[C@@H](O[C@@H]3O[C@H](CO[C@@H]4O[C@H](CO)[C@@H](O)[C@H](O)[C@H]4O)[C@@H](O)[C@H](O)[C@H]3O)c3ccoc3)[C@H]3C[C@H](OC3=O)[C@@]12C [BORAPETOSIDE D] | > 10 µM |
|  | C[C@@H]1C[C@@H]([C@H](O)CC2CC(=O)NC(=O)C2)C(=O)[C@@H](C)C1 [CYCLOHEXIMIDE] | 0.26 µM |
| 0.912 µM | COc1cccc2c1C(=O)c1c(O)c3c(c(O)c1C2=O)C[C@@](O)(C(=O)CO)C[C@@H]3O[C@H]1C[C@H](N)[C@H](O)[C@H](C)O1 [DOXORUBICIN] |  |
